The subject of assay [1] is MDA-MB-453. Briefly: drug sensitivity score (DSS), single agent (DSS (weighted AUC score)); higher = more sensitive (stronger viability decrease); extreme values may be limits of the assay. The settings on record: BLU9931 0 nM; 72 h. An outline of the steps:
(§1)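 Drug sensitivity scores come from a weighted area under a four-parameter logistic fit to percent viability, normalised per plate to control wells. Viability was based on cellular ATP read with CellTiterGlo 2.0 after 72 h at 37 °C, 5% CO2. Each 384-well plate carried FIMM Oncology set compounds in singlicate at five 10-fold dilutions, with 2000 MDA-MB-453 cells per well in medium with or without an FGFR4 inhibitor at 100 nM final.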

Assay [2] concerns MDA-MB-453. Kind of assay: drug sensitivity score (DSS), in combination with BLU9931 (DSS (weighted AUC score)); higher = more sensitive (stronger viability decrease); extreme values may be limits of the assay. The settings on record: BLU9931 100 nM; 72 h. An outline of the steps: as §1

On to `NC(=O)/C(=C/n1cnc(-c2cc(C(F)(F)F)cc(C(F)(F)F)c2)n1)c1cncnc1` [Eltanexor], for which the figures for the drug sensitivity score in the assay with MDA-MB-453 [1] and in the assay on MDA-MB-453 [2] were 13.8 and 14.2, respectively.
Taken in the same sequence, the figures for `COc1cc(OC2CCN(C)CC2)ccc1Nc1ncc2c(n1)n(C1CCCC1)c(=O)n2C` [AZ 3146] were 2.6 and 1.
Taken in the same sequence, the figures for `CC1(COc2ccc3c(c2)ncn3-c2ccc3cccc(N4CCC(N)CC4)c3n2)COC1` [Crenolanib] were 7.5 and 6.5.
As for `Cc1ccc(-c2cc(C(F)(F)F)nn2-c2ccc(S(N)(=O)=O)cc2)cc1` [Celecoxib], the drug sensitivity score with MDA-MB-453 [1] came out at 0.4; in the assay on MDA-MB-453 [2], 0.
On the same counts, the results for `CCNC(=O)c1noc(-c2cc(C(C)C)c(O)cc2O)c1-c1ccc(CN2CCOCC2)cc1` [Luminespib] are 18.1 and 19.7.
Take `CCn1c(-c2nonc2N)nc2cnc(Oc3cccc(NC(=O)c4ccc(OCCN5CCOCC5)cc4)c3)cc21`: the drug sensitivity score came out at 3.9 with MDA-MB-453 [1] and 3.8 in the assay on MDA-MB-453 [2].
Taken in the same sequence, the figures for `S=c1[nH]cnc2nc[nH]c12` [Mercaptopurine] were 10.9 and 0.7.
Taken in the same sequence, the figures for `CCS(=O)(=O)c1cccc(-c2cc(C(=O)NC3CCN(C)CC3)c(C)c3[nH]c4ncc(C)cc4c23)c1` [TAK-901] were 2.7 and 3.
Turning to `Clc1ccccc1C(c1ccccc1)(c1ccccc1)n1cccn1` [TRAM-34], the drug sensitivity score came to 1.6 in the assay with MDA-MB-453 [1] and 0.6 with MDA-MB-453 [2].
Taken in the same sequence, the figures for `Cc1cc(C)c(CNC(=O)c2cc(-c3ccc(CN4CCOCC4)cc3)cc3c2cnn3C2CCCC2)c(=O)[nH]1` [EPZ-5687] were 0.5 and 0.
On the same counts, the results for `CN(C)CC#Cc1ccc(OCCCc2sc(N3CCc4cccc(C(=O)Nc5nc6ccccc6s5)c4C3)nc2C(=O)O)c(F)c1` are 6.6 and 12.
Taken in the same sequence, the figures for `CCCCC(=O)OCC(=O)[C@]1(O)Cc2c(O)c3c(c(O)c2[C@@H](O[C@H]2C[C@H](NC(=O)C(F)(F)F)[C@H](O)[C@H](C)O2)C1)C(=O)c1c(OC)cccc1C3=O` [Valrubicin] were 8.6 and 8.
For the compound `O[C@H](C[C@H]1c2c(F)cccc2-c2cncn21)[C@H]1CC[C@H](O)CC1` [GDC-0919], the drug sensitivity score in the assay with MDA-MB-453 [1] and in the assay on MDA-MB-453 [2] was 0 throughout.
Regarding `C[C@H]1Oc2cc(cnc2N)-c2c(nn(C)c2C#N)CN(C)C(=O)c2ccc(F)cc21`, the drug sensitivity score in the assay with MDA-MB-453 [1] was determined as 0; with MDA-MB-453 [2], 2.1.
Taken in the same sequence, the figures for `O=C1c2c(O)ccc(O)c2C(=O)c2c(NCCNCCO)ccc(NCCNCCO)c21` [Mitoxantrone] were 4.5 and 5.1.
On the same counts, the results for `Cc1cc(OCc2nnc(SC3CCCC3)n2-c2cccnc2)ccc1-c1ccc(S(C)(=O)=O)cc1` [NMS-873] are 11.4 and 9.1.
Taken in the same sequence, the figures for `C[C@]12CC[C@H](O)CC1=CC[C@@H]1[C@@H]2CC[C@]2(C)C(c3cccnc3)=CC[C@@H]12` [Abiraterone] were 0 and 0.
Take `CC(C)n1nc(-c2ccc3oc(N)nc3c2)c2c(N)ncnc21` [Sapanisertib]: the drug sensitivity score in the assay with MDA-MB-453 [1] came to 17.1; in the assay on MDA-MB-453 [2] it was 17.9.
As to `COc1cc2ncnc(Nc3ccc(F)c(Cl)c3)c2cc1OCCCN1CCOCC1` [Gefitinib], the drug sensitivity score with MDA-MB-453 [1] amounted to 6.9; with MDA-MB-453 [2], 8.
On the same counts, the results for `O=C(Nc1cccc(Nc2ncc(Br)c(NCCc3cnc[nH]3)n2)c1)N1CCCC1` [BX-912] are 4.5 and 3.8.
